Values joined by “and” are separate entries in the source; they are usually repeats but may differ in a detail not shown here. Equal values may be shown once.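 Five concentrations, 48 hours, 96-well plates. The concentration for 50% growth inhibition is given as GI50. The concentration for full growth arrest is given as TGI.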
What was measured:
Test in all cases: inhibition of tumour cell growth, NCI panel, 48 h
CAKI-1 renal = test system: CAKI-1 renal
HOP-92 NSCLC = test system: HOP-92 NSCLC
IGROV1 ovarian = test system: IGROV1 ovarian
M14 melanoma = test system: M14 melanoma
MDA-MB-231 breast = test system: MDA-MB-231 breast
MOLT-4 leukemia = test system: MOLT-4 leukemia
RPMI-8226 leukemia = test system: RPMI-8226 leukemia
RXF 393 renal = test system: RXF 393 renal
SN12C renal = test system: SN12C renal
SNB-75 CNS = test system: SNB-75 CNS

| SMILES | GI50 (CAKI-1 renal) | TGI (CAKI-1 renal) | GI50 (HOP-92 NSCLC) | TGI (HOP-92 NSCLC) | GI50 (IGROV1 ovarian) | TGI (IGROV1 ovarian) | GI50 (M14 melanoma) | TGI (M14 melanoma) | GI50 (MDA-MB-231 breast) | TGI (MDA-MB-231 breast) | GI50 (MOLT-4 leukemia) | GI50 (RPMI-8226 leukemia) | TGI (RPMI-8226 leukemia) | GI50 (RXF 393 renal) | TGI (RXF 393 renal) | GI50 (SN12C renal) | TGI (SN12C renal) | GI50 (SNB-75 CNS) | TGI (SNB-75 CNS) | TGI (MOLT-4 leukemia) [µM] |
| --- | --- | --- | --- | --- | --- | --- | --- | --- | --- | --- | --- | --- | --- | --- | --- | --- | --- | --- | --- | --- |
| O=C1NC(N/N=C\C(O)C(O)C(O)C(O)CO)=N/C1=C/c1ccccc1 (stereo not given) | > 100 µM and 19.4 µM | > 100 µM and 38.1 µM | 60.1 µM and 15.5 µM and > 100 µM | > 100 µM and 33.9 µM | > 100 µM and 16.2 µM | > 100 µM and 33.3 µM | 52.6 µM and 15.4 µM and > 100 µM | > 100 µM and 31.6 µM | 51.7 µM and 15.4 µM and > 100 µM | > 100 µM and 33.4 µM | 22.3 µM and 2.74 µM and 25.7 µM | 58.8 µM and 19.6 µM and > 100 µM | > 100 µM and 45.2 µM | > 100 µM and 21.7 µM | > 100 µM and 44 µM | 75.4 µM and 15.5 µM and > 100 µM | > 100 µM and 36.3 µM | > 100 µM and 24.9 µM | > 100 µM and 54 µM | – |
| Oc1c(C(Nc2ccccc2Br)c2ccccc2)ccc2cccnc12 (stereo not given) | 1.36 µM | 54.3 µM | 6.51 µM | 75.9 µM | 3.47 µM | 22.9 µM | 2.3 µM | 8.47 µM | 3.9 µM | 58.9 µM | 1.68 µM | 6.28 µM | > 100 µM | 1.97 µM | 20.9 µM | 2.68 µM | 35.1 µM | 2.82 µM | 48.6 µM | 7.56 |
| [2H]C([2H])([2H])NC(=O)c1nnc(NC(=O)C2CC2)cc1Nc1cccc(-c2ncn(C)n2)c1OC | 4.52 µM | 71.6 µM | 17.9 µM | > 100 µM | 6.96 µM | > 100 µM | 9.22 µM | > 100 µM | 19.1 µM | > 100 µM | 0.934 µM | 14.2 µM | > 100 µM | 6.04 µM | > 100 µM | 34.5 µM | > 100 µM | 15 µM | > 100 µM | > 100 |
| O=C(O)C(Cc1cnc[nH]1)N1C(=O)c2ccccc2C1=O (stereo not given) | – | > 100 µM | – | > 100 µM | – | > 100 µM | – | > 100 µM | – | > 100 µM | – | – | > 100 µM | – | > 100 µM | – | > 100 µM | – | > 100 µM | > 100 |
| C=CC(=O)N1CCC(c2ccc(C(N)=O)c(-c3ccc(Oc4ccccc4)cc3)n2)CC1 | 15.8 µM | > 100 µM | 10.4 µM | 76.6 µM | 19.1 µM | > 100 µM | 34.3 µM | > 100 µM | 39 µM | > 100 µM | 27.3 µM | 20.4 µM | 73.7 µM | 12.5 µM | 53.6 µM | 28.2 µM | > 100 µM | 17 µM | > 100 µM | > 100 |
| Nc1ccn(C2CC(F)C(CO)O2)c(=O)n1 (stereo not given) | > 100 µM | > 100 µM | > 100 µM | > 100 µM | > 100 µM | > 100 µM | > 100 µM | > 100 µM | > 100 µM | > 100 µM | > 100 µM | > 100 µM | > 100 µM | > 100 µM | > 100 µM | > 100 µM | > 100 µM | > 100 µM | > 100 µM | > 100 |
| CCOC(=O)N1C/C(=C\c2ccccc2)C(=O)/C(=C/c2ccccc2)C1 | – | 4.51 µM | – | 22.4 µM | – | 11.7 µM | – | 6.69 µM | – | 5.3 µM | – | – | 1.77 µM | – | 10.3 µM | – | 5.61 µM | – | 22.4 µM | 6 |
| COc1cc(-c2nc3ccccc3s2)ccc1OCCCCOc1cc2c(cc1OC)C(=O)N1CCC[C@H]1C=N2 | 0.949 µM | 11.6 µM | 0.475 µM | 1.19 µM | 3.06 µM | 12.7 µM | 1.38 µM | 2.92 µM | 0.911 µM | 3.09 µM | 0.952 µM | 0.328 µM | 1.44 µM | 0.24 µM | 0.698 µM | 1.39 µM | 3.87 µM | 1.4 µM | 2.84 µM | 7.99 |
| OC1(c2ccccc2)C2CC=CC2C1(c1ccccc1)c1ccccc1 (stereo not given) | – | 60.1 µM | – | > 100 µM | – | 48.9 µM | – | > 100 µM | – | > 100 µM | – | – | 86.5 µM | – | 46.3 µM | – | > 100 µM | – | > 100 µM | > 100 |
| CN1C(=O)c2ccc3ccccc3c2C1=O | – | > 100 µM | – | > 100 µM | – | > 100 µM | – | > 100 µM | – | > 100 µM | – | – | > 100 µM | – | 96.6 µM | – | > 100 µM | – | > 100 µM | > 100 |
| O=[N+]([O-])c1cccc(/C=N/NC2=CS(=O)(=O)C=C2)c1 | – | > 100 µM | – | > 100 µM | – | > 100 µM | – | > 100 µM | – | > 100 µM | – | – | > 100 µM | – | > 100 µM | – | > 100 µM | – | > 100 µM | > 100 |
| O=C(CCN1CCCC1)Nc1ccc2c(NCc3ccccc3)c3ccccc3nc2c1 | 1.53 µM | 6.18 µM | 0.348 µM | 2.19 µM | 0.383 µM | 1.67 µM | 0.657 µM | 2.03 µM | 0.377 µM | 1.59 µM | 0.364 µM | 0.411 µM | – | 0.349 µM | 1.38 µM | 0.332 µM | 1.52 µM | 0.398 µM | 1.7 µM | 2.03 |
| COc1ccc([C@H](CC(=O)O)N2CCN(CCCc3ccc4c(n3)NCCC4)C2=O)cn1 | 2.71 µM | > 100 µM | 0.0348 µM | 0.159 µM | > 38.1 µM | > 100 µM | > 100 µM | > 100 µM | 0.254 µM | – | > 100 µM | > 100 µM | > 100 µM | 0.136 µM | > 100 µM | 0.515 µM | – | 0.0112 µM | 0.0278 µM | > 100 |
| C#C[C@]1(O)CC[C@H]2[C@@H]3CC=C4c5sc(Nc6cc(F)ccc6F)nc5CC[C@]4(C)[C@H]3CC[C@@]21C | 1.38 µM | 2.79 µM | 2.06 µM | 5.49 µM | 1.68 µM | 3.73 µM | 1.28 µM | 2.77 µM | 1.82 µM | 4.09 µM | 0.416 µM | 0.196 µM | 0.934 µM | 0.213 µM | 0.728 µM | 2.15 µM | 5.23 µM | 0.736 µM | 2.18 µM | 10.2 |
| CCCCC(SC(=S)N1CCCC1)C(=O)Nc1nc(CC(=O)OCC)cs1 (stereo not given) | > 100 µM | > 100 µM | 36.6 µM | > 100 µM | 7.98 µM | > 100 µM | 32.9 µM | > 100 µM | > 100 µM | > 100 µM | 1.91 µM | 10.6 µM | 90.9 µM | 41.7 µM | > 100 µM | 85.2 µM | > 100 µM | > 100 µM | > 100 µM | > 100 |
| COc1ccc(C(=O)Cn2c(C(=O)c3ccccc3)nc3ccccc32)cc1 | > 100 µM | > 100 µM | > 100 µM | > 100 µM | 6.19 µM | > 100 µM | 2.93 µM | > 100 µM | 7.38 µM | > 100 µM | 1.87 µM | 3.05 µM | > 28.8 µM | 2.38 µM | > 22.2 µM | > 27.7 µM | > 100 µM | 4.61 µM | > 100 µM | > 100 |
| C[C@H]1[C@H](C)N1CC(O)Cn1ccnc1[N+](=O)[O-] (stereo not given in full) | – | > 100 µM | – | > 100 µM | – | > 100 µM | – | > 100 µM | – | > 100 µM | – | – | > 100 µM | – | > 100 µM | – | > 100 µM | – | > 100 µM | > 100 |
| NC(=N\N=C/c1ccc(O)cc1)/C(N)=N\N=C/c1ccc(O)cc1 | 2.06 µM | > 100 µM | 60.3 µM | > 100 µM | > 59.6 µM | > 100 µM | 5.56 µM | > 100 µM | 10.7 µM | > 100 µM | 0.623 µM | > 24.8 µM | > 100 µM | 84.7 µM | > 100 µM | > 31 µM | > 100 µM | 17.3 µM | 43.3 µM | > 100 |
| COC(C)(C)[C@@H](O)[C@H](O)C[C@H](C)C1=C2CC[C@@H]3[C@@]4(C)CC[C@@H](OC(C)=O)C(C)(C)[C@@H]4C[C@@H](OC4OC(COC(C)=O)C(O)C(O)C4O)[C@@]3(C)[C@]2(C)CC1 (stereo not given in full) | 4.1 µM | 14.8 µM | 13 µM | 25.8 µM | 13.1 µM | 26.2 µM | 12.4 µM | 25.4 µM | 11.6 µM | 23.8 µM | 5.07 µM | 4.15 µM | 22.1 µM | 6.96 µM | 19.5 µM | 13.4 µM | 26.4 µM | – | 21.2 µM | 23.9 |
| O=C1CCc2c(sc3[nH]c(=S)n(-c4cc(C(F)(F)F)cc(C(F)(F)F)c4)c(=O)c23)C1 | 0.377 µM | 4.54 µM | 0.205 µM | 0.692 µM | 0.446 µM | 3.44 µM | 0.463 µM | 11.9 µM | 0.336 µM | 1.45 µM | 0.636 µM | 0.411 µM | 3.03 µM | 0.392 µM | 5.16 µM | 0.352 µM | 11.8 µM | 0.328 µM | 3.66 µM | 9.15 |
| CC1=CC2C(C(O)CC3(C)C2CC(C)C32OCOC23COCO3)C2(C)C/C(=C/O)C(=O)C=C12 (stereo not given) | 1.94 µM | 3.8 µM | 1.78 µM | 3.45 µM | 2.07 µM | 4 µM | 1.66 µM | 3.51 µM | 1.75 µM | 3.49 µM | 1.97 µM | 1.84 µM | 5.15 µM | 1.81 µM | 3.31 µM | 2.5 µM | 6.39 µM | 1.63 µM | 3.03 µM | 4.9 |

— PubChem BioAssay (NCI)
